Assay results as given in patent publication US20200087625A1, “METHODS FOR ISOLATING, EXPANDING AND ADMINISTERING CANCER SPECIFIC CD8+ T CELLS” (priority 2017, published 2020).

Tests used:
SCC7 = SCC7 tumor model, 1V270 with systemic anti-PD-1 agent; type: in vivo, C3H mice; settings: day 21, flow cytometry
Procedure: FIGS. 2A-2F. […] C3H mice (n=5-8/group) were implanted with SCC7 and carcinoma cells 1A. Tumors and spleens were harvested on day 21 and T cells in TILs or spleens were analyzed by flow cytometry. (A and B) Tumor infiltrating CD8^+ T cells were gated on CD45^+CD3^+CD8^+ populations. Number of CD8^+ T cells (A) and IFNγ^+CD8^+ cells (B) per tumor volume (mm^3) were calculated and plotted. (C) Representative immunohistochemistry images of the tumors (day 21) stained for CD8 (red) and DAPI (blue). Scale bar: 20 μm. (D) Number of IFNγ^+CD8^+ T cells in spleens. Bars indicate mean±SEM. Each dot represents an individual animal and bars indicate mean±SEM in A, B and D. P*<0.05, **P<0.01 (Kruskal-Wallis test with Dunn's post hoc test), n=5-8/group. (E) Tumor volumes at the injected sites were plotted against the log of the number of IFNγ^+CD8^+ T cells in the tumor microenvironment. […] (F) The tumor volumes (day 21, injected side) were plotted against the log of the numbers of IFNγ^+CD8^+ T cells in the spleen.
FIGS. 3A-3E. […] (A-D) SCC7-bearing mice (n=4/group) were treated as described in FIG. 2. Tumors and spleens were harvested on day 21 and CD8^+ T cells were isolated using MACSMicroBead. RNA was isolated and next-generation sequencing was performed. (A) Representative data of TCR repertoire clonality of CD8^+ T cells. […]

4T1 cells = assay: Spontaneous lung metastasis model, orthotopic 4T1 breast cancer; type: in vivo, BALB/c mice
Procedure: FIGS. 22A-22C. Systemic administration of 1V270 inhibits lung metastasis in the 4T1 murine syngeneic breast cancer model in a CD8^+ T cell dependent manner. (A) Protocol of spontaneous metastasis model. 4T1 cells (5×10^5) were inoculated in both 4th mammary pads of Balb/c mice (n=13/group) 1V270 (20, 80, 04 200 μg/injection) was administered on days 7, 10, 14, 17, 21 and 24. (B) The numbers of lung nodules were counted by staining with India ink after harvesting lungs on day 27. (C) The mice (n=6-15/group) were orthotopically implanted with 4T1 cells and i.p. treated with 1V270 (20 μg/injection) as shown in FIG. 1A. CD8^+ cells were depleted by administration of anti-CD8 or isotype mAbs on days 5, 8, 11, 16, 19, and 23. The numbers of lung nodules were counted on day 27. Each dot indicates an individual mouse and horizontal and vertical bars indicate means±SEM. Data shown are pooled from 2 independent experiments. *P<0.05, **P<0.01 by Kruskal-Wallis test with Dunn's post hoc test comparing treatment groups against vehicle group. n.s; statistically not significant.
FIGS. 28A-28C. […] Tumor growth was measured with a caliper and calculated using the formula: volume (mm^3)=(width)^2×length/2. […]
In the spontaneous metastasis model, othotopically implanted tumor cells spontaneously form lung metastases within three weeks after implantation. […] Tumor length and width were recorded, and tumor volumes were calculated using the formula: volume (mm^3)=(width)^2×length/2. […] On day 21, mice were euthanized and tumor nodules in lungs were counted as described above. […] Tumor length and width were recorded, and tumor volumes were calculated similar with
4T1 cells (5×10^5) were inoculated into the 4th mammary pads on day 0, and 1V270 (20, 80, or 200 μg/injection) was injected intraperitoneally (i.p.) twice a week for three weeks, starting on day 7 (FIG. 22A). Both the primary tumor volumes and the numbers of lung metastases were evaluated on day 27. […]

## CCCCCCCCC=CCCCCCCCC(=O)OCC(COP(=O)(O)OCCNC(=O)c1ccc(Cn2c(=O)[nH]c3c(N)nc(OCCOC)nc32)cc1)OC(=O)CCCCCCCC=CCCCCCCCC (stereo not shown) [1V270]
SCC7
  CD8+ population in TILs: increased CD8^+ population in TILs
4T1 cells; 1V270 20, 80 or 200 μg/injection i.p. from day 7
  tumor growth at the primary sites of implantation: did not retard tumor growth at the primary sites of implantation
4T1 cells; 1V270 20, 80 or 200 μg/injection i.p. twice a week for three weeks from day 7, evaluated day 27
  number of lung metastases: decreased the number of lung metastases
4T1 cells; anti-CD8 mAb depletion, 1V270 20 μg/injection i.p.
  numbers of lung nodules after CD8+ cell depletion: increased significantly
